Test results from patent US20050129725A1, “Method of controlling pest and pest control agent” (KURARAY CO., LTD., priority 2002, published 2005).
Read-outs that look alike come from different tables or passages of the source.

Assays:
[1] = test system: adult female Culex pipiens; assay: Repellent effect of treated wire net bags (mouse as blood source) on blood sucking by Culex pipiens; assay type: in vivo; settings: summary of Experimental Example 1
Method: A 20-mesh soft wire net was cut into 15×16 cm, folded into two, and open two sides (longitudinal and transverse sides) were folded to give a bag. Four of these bags were prepared. Farnesylacetone (mixing ratio:[…]/trans-trans form=15/50/35) was dissolved in ethanol at 0.2 wt % and 1 wt % and one wire net bag each was immersed in one of the obtained solutions for about 10 sec. The bag was taken out from the solution, and air-dried at room temperature for 30 min to give a farnesylacetone treated wire net bag. The wire net bag treated with farnesylacetone 0.2 wt % solution was taken as Example 1, and the wire net bag treated with farnesylacetone 1 wt % solution was taken as Example 2. […] The wire net bags of Examples 1 and 2 and Comparative Example 1 were evaluated in Experimental Example 1 for the repellent effect on adult female Culex pipiens using an untreated wire net bag as a control.
50 to 70 female adult Culex pipiens at 10-15 days after eclosion and having high blood sucking activity were released inside each of four adult raising cages (30×40×30 cm). […] As a blood sucking result, the number of the test Culex pipiens with swollen abdomen was counted at a certain time intervals after the start of the test, which number was divided by the number of test Culex pipiens to calculate a blood sucking rate (%). […]

[2] = Concentration of farnesylacetone in the dog kennel; assay type: physicochemical; settings: kennel sprayed every week with 1% solution in ethanol; detection limit
Method: (§1) A dog raised in a dog kennel (vaporization area expanding means), the inside of which was sprayed every week with a 1% solution of farnesylacetone in ethanol with a spray container (reservoir means), and a dog raised in a dog kennel, the inside of which was sprayed every week with ethanol alone, were observed and compared for their behaviors for 30 min every day for one week. The dog raised in the farnesylacetone treated dog kennel scratched its body twice a day, but the dog raised in the dog kennel free of farnesylacetone treatment scratched its body 13 times a day. The concentration of farnesylacetone in the dog kennel was not more than 1 μg/L (detection limit). It is assumed that the fleas parasitic in dogs were repelled and decreased by farnesylacetone.

Coptotermes formosanus = assay type: in vivo; settings: for number of Coptotermes formosanus in test section: 30 ants in total; for number of Coptotermes formosanus in control section: untreated half of same schale
Method: Three sets of experiment systems were prepared wherein quartz sand allowed to absorb a suitable amount of water was spread on a 90 mm diameter schale in a thickness of 1 mm, a 5 mm width groove was formed on a diameter line to divide the dish into two, three 8 mm diameter circular filters impregnated with a suitable amount of a solution of farnesylacetone or phytone in acetone and air-dried were placed in one test section, and three untreated circular filters were placed in the control section.
In each experiment system were each released 10 worker ants of Coptotermes formosanus and raised in an incubator at 28° C., humidity 70%. After a certain time, the number of Coptotermes formosanus in the test section and the control section was counted. The repellence rate and mortality were calculated from the following formulas. Repellence rate={1−(number of the ants in the test section/number of the survived ants)}×100 (%) Mortality=number of the dead ants/30×100 (%)

Blattella germanica = assay: Box shelter lurking place choice test with coated paper sheets; assay type: in vivo; settings: summary of Experimental Example 2
Method: A mixture of farnesylacetone (mixing ratio:cis-cis form/cis-trans form and trans-cis form/trans-trans form=15/50/35) and vitamin E (antioxidant) (weight ratio 99:1) was dissolved in methanol at 0.06 wt % and 0.3 wt %. The obtained solutions were coated on a 0.26 mm thick paper sheet at 167 g/l m^2, and air-dried to evaporate methanol, whereby sheets having a farnesylacetone coating at 0.1 g/m^2 and 0.5 g/m^2 were obtained and used as Example 3 and Example 4, respectively. Both a farnesylacetone coating sheet prepared on the very day and one left open and uncontrolled by hanging in a room at a room temperature of 21-24° C. for 2 weeks, where ventilation rate was 10-15 times per 1 hour, were evaluated in Experimental Examples 2-4 for repellence performance against the larvae of Blattella germanica, Camponotus japonicus and Anthrenus verbasci using untreated paper sheet as a control.
One box shelter (length 8 cm×side 12.5 cm×height 2 cm, made of white corrugated cardboard) having one entrance (width 1 cm×height 2 cm) and one of the test-day-made products of Example 3 and 4, the products left open and uncontrolled for 2 weeks of Example 3 and 4 and a control paper sheet, which was adhered to an interior floor surface, was prepared for each test sample. […]

[3] = Odor and discomfort of sampled farnesylacetone gas in human
Method: (§2) Farnesylacetone (1 mL) was placed in a 50 mL sample bottle, and a large magnetic stirring bar capable of rotating the air as well was placed therein. The bottle was placed neck-deep in an oil bath at 130° C. with rotation, and heated for 1 hr to saturate the inside of the sample bottle with farnesylacetone vapor. Thereafter, the gas in the sample bottle was taken by 5 mL with a gas tight syringe, and using gas chromatography with an FID detector, the concentration of farnesylacetone was measured by the absolute calibration method.
as §2, with “placed therein” for “placed therein.”, “in a […]” for “in an oil”, “[…]” for “at 130°”, “to fill” for “to saturate”, “by an” for “by the”, “method. […] Almost simultaneously, the gas (5 mL) in the sample bottle was taken again, a propeller was set in a 10 L beaker, the gas was added into the sealed beaker, the air in the beaker was stirred with the propeller for 10 min to dilute the gas 2,000-fold, whereby gas containing […] farnesylacetone was obtained. […]” for “method.”

[4] = Measurement of farnesylacetone concentration in the air (gas chromatography, FID); assay type: physicochemical; settings: 1 hr
Method: as §2, with “The bottle was placed neck-deep in an oil bath at 130° C. with rotation, and heated for 1 hr to saturate the inside of the sample bottle with farnesylacetone vapor.” left out
as §2, with “placed therein” for “placed therein.”, “in a […]” for “in an oil”, “[…]” for “at 130°”, “to fill” for “to saturate”, “by an” for “by the”, “method. […] Almost simultaneously, the gas (5 mL) in the sample bottle was taken again, a propeller was set in a 10 L beaker, the gas was added into the sealed beaker, the air in the beaker was stirred with the propeller for 10 min to dilute the gas 2,000-fold, whereby gas containing […] farnesylacetone was obtained. […]” for “method.”

fleas parasitic in dogs = assay: Scratching behaviour of dog raised in sprayed dog kennel; assay type: in vivo; settings: kennel sprayed every week with 1% solution in ethanol; observed 30 min every day for one week
Method: as §1

CCN(CC)C(=O)c1cccc(C)c1 [DEET, N,N-diethyl-m-tolamide, reference compound]
course of repellent effect of treated wire net bag on Culex pipiens [1]: decreases with time

CC(=O)CC/C=C(\C)CC/C=C(\C)CCC=C(C)C [farnesylacetone]
concentration of farnesylacetone in the dog kennel [2]: not more than 1 μg/L
death (number of the dead ants) (Coptotermes formosanus; concentration 1%, 1 day later): 1
repellence rate (Coptotermes formosanus; concentration 1%, 1 day later): 86%
number of Coptotermes formosanus in test section (Coptotermes formosanus; concentration 1%, 1 day later): 4
number of Coptotermes formosanus in control section (Coptotermes formosanus; concentration 1%, 1 day later): 25
death (number of the dead ants) (Coptotermes formosanus; concentration 1%, 4 days later): 1
repellence rate (Coptotermes formosanus; concentration 1%, 4 days later): 100%
number of Coptotermes formosanus in test section (Coptotermes formosanus; concentration 1%, 4 days later): 0
number of Coptotermes formosanus in control section (Coptotermes formosanus; concentration 1%, 4 days later): 29
death (number of the dead ants) (Coptotermes formosanus; concentration 5%, 1 day later): 2
repellence rate (Coptotermes formosanus; concentration 5%, 1 day later): 100%
number of Coptotermes formosanus in test section (Coptotermes formosanus; concentration 5%, 1 day later): 0
number of Coptotermes formosanus in control section (Coptotermes formosanus; concentration 5%, 1 day later): 28
death (number of the dead ants) (Coptotermes formosanus; concentration 5%, 4 days later): 3
repellence rate (Coptotermes formosanus; concentration 5%, 4 days later): 96%
number of Coptotermes formosanus in test section (Coptotermes formosanus; concentration 5%, 4 days later): 1
number of Coptotermes formosanus in control section (Coptotermes formosanus; concentration 5%, 4 days later): 26
time for which treated paper sheet maintained Blattella germanica control effect (Blattella germanica): at least 2 weeks
odor and effect of sampled gas on human ([3]; gas containing 20,000 μg/L): had a strong odor, caused cough when inhaled in a large amount, and provoked uncomfortable feeling in human
odor of sampled gas detected by human ([3]; gas further diluted 10-fold, printed as containing 0.01 μg/L): scarcely had an odor detected by human
course of repellent effect of treated wire net bag on Culex pipiens [1]: maintained at a high level even after 18 hr
concentration of farnesylacetone in the gas ([4]; sample bottle filled with vapor, water bath at 60° C.): 20 µg/L
concentration of farnesylacetone in the gas ([4]; sample bottle saturated with vapor, oil bath at 130° C.): 20,000 μg/L
dog scratched its body (times a day) (fleas parasitic in dogs): twice a day

CC(=O)CCCC(C)CCCC(C)CCCC(C)C (stereo not drawn) [phytone]
death (number of the dead ants) (Coptotermes formosanus; concentration 10%, 1 day later): 0
repellence rate (Coptotermes formosanus; concentration 10%, 1 day later): 63%
number of Coptotermes formosanus in test section (Coptotermes formosanus; concentration 10%, 1 day later): 11
number of Coptotermes formosanus in control section (Coptotermes formosanus; concentration 10%, 1 day later): 19
death (number of the dead ants) (Coptotermes formosanus; concentration 50%, 1 day later): 1
repellence rate (Coptotermes formosanus; concentration 50%, 1 day later): 86%
number of Coptotermes formosanus in test section (Coptotermes formosanus; concentration 50%, 1 day later): 4
number of Coptotermes formosanus in control section (Coptotermes formosanus; concentration 50%, 1 day later): 25
